Experimental findings from patent publication US20060247286A1, “Oxazolidinone antibiotics and derivatives thereof” (priority 2003, published 2006) are described below.

In brackets after ≈: the same amount, converted by molar mass.

Common to all, as to type: cell-based
In assay [1] the test system is Moraxella catarrhalis ATCC25238. Briefly: MIC, agar dilution method, Mueller-Hinton agar. As to conditions: 1×10^4 cfu/spot, 35° C., 24 hours. The protocol:
(§1) The following in vitro results were obtained based on an agar dilution method except for C. pneumoniae. The activity is presented as the minimum inhibitory concentration (MIC).
(§2) S. aureus and M. catarrhalis were tested on Mueller-Hinton agar, using an approximate inoculum of 1×10^4 cfu/spot an incubation temperature of 35° C. for 24 hours. The MIC was defined as the lowest concentration at which no visible bacterial growth was observed.
A general note: Agar dilution tests growth on a series of plates holding different concentrations.

The test system of assay [2] is Staphylococcus aureus MR (methicillin resistant). Briefly: MIC, agar dilution method, Mueller-Hinton agar. As to conditions: 1×10^4 cfu/spot, 35° C., 24 hours. The procedure:
as §1, §2

Assay [3] concerns Staphylococcus aureus Smith. Briefly: MIC, agar dilution method, Mueller-Hinton agar. To be noted: 1×10^4 cfu/spot, 35° C., 24 hours. The procedure:
as §1, §2

Assay [4] concerns Staphylococcus aureus CR (chloramphenicol resistant). Briefly: MIC, agar dilution method, Mueller-Hinton agar. As to conditions: 1×10^4 cfu/spot, 35° C., 24 hours. The procedure: as §1, §2
Assay [5] deals with Streptococcus pneumoniae IID553. Briefly: MIC, agar dilution method, Mueller-Hinton agar with 5% defibrinated horse blood. As to conditions: 35° C., 5% CO2, 24 hours. The protocol:
as §1
(§3) Streptococci and enterococci were tested on Mueller-Hinton agar supplemented with 5% defibrinated horse blood, using an approximate inoculum of 1×10^4 cfu/spot an incubation temperature of 35° C. in an atmosphere of 5% CO2 for 24 hours. The MIC was defined as the lowest concentration at which no visible bacterial growth was observed.

Assay [6] relates to Streptococcus pneumoniae PRQR (penicillin resistant, quinolone resistant). The description is as above. As to conditions: 35° C., 5% CO2, 24 hours. The procedure:
as §1, §3

In assay [7] the test system is Enterococcus faecium VRQR (vancomycin resistant, quinolone resistant). The description is as above. As to conditions: 35° C., 5% CO2, 24 hours. The protocol:
as §1, §3

Assay [8] concerns Streptococcus pyogenes IID692. The assay is described as above. To be noted: 35° C., 5% CO2, 24 hours. The procedure:
as §1, §3

The term MIC denotes the lowest concentration that inhibits growth of the organism. High values mean a need for much substance, low ones inhibition by little substance. For `CC(=O)NC[C@H]1CN(c2ccc(N3CCOCC3)c(F)c2)C(=O)O1` [Linezolid, reference compound], the MIC in assay [1] worked out at 4 µg/mL (≈ 11.9 µM); in assay [2] it was 1 µg/mL (≈ 2.96 µM); in assay [3] it was 1 µg/mL (≈ 2.96 µM); in assay [4], 16 µg/mL (≈ 47.4 µM); in assay [5], 2 µg/mL (≈ 5.93 µM); in assay [6] it was 1 µg/mL (≈ 2.96 µM). Besides, the values for the MIC in assay [7] and in assay [8] were 2 µg/mL (≈ 5.93 µM) and 1 µg/mL (≈ 2.96 µM), respectively.

With `CC(=O)NC[C@H]1CN(c2ccc([C@@]3(C#N)[C@@H]4CN(C#N)C[C@@H]43)cc2)C(=O)O1` [Example 11, N-[5(S)-3-[4-[(1α,5α,6β)-(3,6-Dicyano-3-azabicyclo[3.1.0]hexan-6-yl)]phenyl]-2-oxooxazolidin-5-ylmethyl]acetamide], the MIC in assay [1] was found to be 1 µg/mL (≈ 2.74 µM); in assay [2], 0.5 µg/mL (≈ 1.37 µM); in assay [3], 0.25 µg/mL (≈ 0.684 µM); in assay [4], 1 µg/mL (≈ 2.74 µM); in assay [5] it was 0.25 µg/mL (≈ 0.684 µM); in assay [6], 0.25 µg/mL (≈ 0.684 µM). The MIC in assay [7] was found to be 0.25 µg/mL (≈ 0.684 µM); in assay [8], 0.125 µg/mL (≈ 0.342 µM).

For `CC(=O)NC[C@H]1CN(c2ccc([C@@]3(C#N)[C@@H]4CCC[C@@H]43)cc2)C(=O)O1` [Example 1, N-[5(S)-3-[4-[(1α,5α,6β)-(6-Cyanobicyclo[3.1.0]hexan-6-yl)]phenyl]-2-oxooxazolidin-5-ylmethyl]acetamide], the MIC in assay [1] turned out to be 0.5 µg/mL (≈ 1.47 µM); in assay [2], 0.25 µg/mL (≈ 0.737 µM); in assay [3], 0.25 µg/mL (≈ 0.737 µM); in assay [4], 2 µg/mL (≈ 5.89 µM); in assay [5] it was 0.5 µg/mL (≈ 1.47 µM); in assay [6], 0.25 µg/mL (≈ 0.737 µM). Further, the MIC in assay [7] was found to be 0.25 µg/mL (≈ 0.737 µM); in assay [8], 0.5 µg/mL (≈ 1.47 µM).

Regarding `CC(=O)NC[C@H]1CN(c2ccc([C@@]3(C#N)[C@@H]4CN(S(C)(=O)=O)C[C@@H]43)cc2)C(=O)O1` [Example 9, N-[5(S)-3-[4-[(1α,5α,6β)-(6-Cyano-3-methanesulfonyl-3-azabicyclo[3.1.0]hexan-6-yl)]phenyl]-2-oxooxazolidin-5-ylmethyl]acetamide], the MIC in assay [1] was 2 µg/mL (≈ 4.78 µM); in assay [2], 0.5 µg/mL (≈ 1.19 µM); in assay [3], 0.5 µg/mL (≈ 1.19 µM); in assay [4], 1 µg/mL (≈ 2.39 µM); in assay [5] it was 0.5 µg/mL (≈ 1.19 µM); in assay [6] it was 0.5 µg/mL (≈ 1.19 µM). Besides, the MIC in assay [7] and in assay [8] was 0.5 µg/mL (≈ 1.19 µM) in each case.

With `CC(=O)NC[C@H]1CN(c2ccc([C@@]3(C#N)[C@@H]4CN(C(=O)CO)C[C@@H]43)cc2)C(=O)O1` [Example 8, N-[5(S)-3-[4-[(1α,5α,6β)-(6-Cyano-3-hydroxyacetyl-3-azabicyclo[3.1.0]hexan-6-yl)]phenyl]-2-oxooxazolidin-5-ylmethyl]acetamide], the MIC in assay [1] was 2 µg/mL (≈ 5.02 µM); in assay [2] it was 1 µg/mL (≈ 2.51 µM); in assay [3], 1 µg/mL (≈ 2.51 µM); in assay [4], 2 µg/mL (≈ 5.02 µM); in assay [5] it was 0.5 µg/mL (≈ 1.25 µM); in assay [6], 0.5 µg/mL (≈ 1.25 µM). For the same compound, the MIC in assay [7] and in assay [8] was 0.5 µg/mL (≈ 1.25 µM) each time.
